From publication PMC6605100 (Peptide science (Hoboken, N.J.), 2018)

Tests used:
[1] = Peptide degradation assay in HeLa lysates, RP-HPLC; details: 30 μM peptide, HeLa lysates 2 mg/mL, 10 mM Tris-HCl pH 7.6, 37°C, HPLC UV 442 nm
[2] = tested on: HeLa cells

entry into intact cells (permeability) [2]	Compound	time within which the peptide was mostly degraded [1] [min]
–	N=C(N)NCCC[C@H](NC(=O)[C@H](CCCNC(=N)N)NC(=O)[C@H](CCCNC(=N)N)NC(=O)[C@H](CCC(N)=O)NC(=O)[C@H](CCCNC(=N)N)NC(=O)[C@H](CCCNC(=N)N)NC(=O)[C@H](CCCCN)NC(=O)[C@H](CCCCN)NC(=O)[C@H](CCCNC(=N)N)NC(=O)CNC(=O)[C@H](Cc1ccc(O)cc1)NC(=O)c1ccc2c(c1)C(=O)OC21c2ccc(O)cc2Oc2cc(O)ccc21)C(N)=O [TAT]	≤ 30
found to enter intact HeLa cells	Ac-RWVKVpGOWIKQ-NH2 [WKWK]	–
